The values below come from patent publication US20130018193A1, “DEUTERATED PIRFENIDONE” (CONCERT Pharmaceuticals Inc., priority 2007, published 2013).

Data set [1] in a line: Pharmacokinetics of Compounds 106 and 108 after intravenous and oral dosing in chimpanzees. The format is in vivo. Particulars: chimps; for AUC(0-inf) / clearance / half-life / Cmax: both sexes, plasma, 100 mg each co-dosed; for half-life: 30 minute infusion. How it is done: Chimpanzees (one male and one female for each route of administration) were administered a combination of 100 mg of Compound 106, 100 mg of Compound 108 and 100 mg of pirfenidone in 10% DMI (dimethyl isosorbide), 15% ethanol, 35% PG in distilled water (total volume 150 ml) by either oral or intravenous dosing. Intravenous dosing was performed by infusion over a 30 minute period. Blood samples from the orally dosed chimps were collected just prior to dosing and at 15, 30, 60, 90, 120, 240, 360, 480, 600, 720 and 1440 minutes post-dosing. Blood samples (4.5 ml) from the intravenously dosed chimps were collected just prior to infusion, at 15 and 29.5 minutes after the start of infusion, and then at 6, 15, 30, 45, 60, 120, 240, 360, 480, 600, 720 and 1440 minutes post-infusion. Plasma was isolated and prepared for analysis by mixing 0.1 ml of plasma with 300 μL of indiplon in (50 ng/ml in acetonitrile/water; 90/10; v/v) as an internal standard, vortexing and then centrifuging to remove any precipitated protein.
Plasma samples (10 μl) were injected to a Zorbax SB-C8 (Rapid Resolution) column (2.1×30 mm, 3.5 μm). The initial mobile phase condition was 100% A (water with 0.1% formic acid) and 0% B (acetonitrile with 0.1% formic acid) with a flow rate at 0.75 mL/min. Mobile phase B was allowed to reach 100% in 0.75 minutes and held for 1.0 minute before ramping back to 0% in another 0.1 minute. The overall run time was 3 minutes. The precursor/product ion pairs were set at m/z 186/92, m/z 191/97, m/z 189/95 and m/z 377/293 for detecting pirfenidone, Compound 106, Compound 108 and indiplon, respectively. Plasma concentration data for each compound in each animal was individually fitted to a 2-compartment model using WinNonLin version 5.2 (PK Model #9) with weighting of 1/y.

Data set [2] can be described thus: Pharmacokinetics of Compound 106 after intravenous and oral dosing in rats. The format is in vivo, Male Sprague-Dawley rats. Particulars: for half-life / AUC(0-inf): male, Sprague-Dawley, rat, plasma; for half-life: 8 mg/kg co-dosed with pirfenidone; for AUC(0-inf): 8 mg/kg co-dosed. As to the method: Male Sprague-Dawley rats (3 for each route of administration) were administered a combination of 8 mg/kg of Compound 106 and 8 mg/kg of pirfenidone in 10% DMI (dimethyl isosorbide), 15% ethanol, 35% PG in distilled water by either oral or intravenous dosing. Blood samples from the dosed rats were collected prior to dosing and at 15, 30, 45, 60, 75, 90, 120, 240, and 360 minutes post-dosing. Plasma was isolated and prepared for analysis by mixing 0.1 ml of plasma in an Eppendorf tube with 20 μL methanol and 500 μL of quetiapine (50 ng/ml as an internal standard), vortexing for 1 minute and then centrifuging at 15,000 rpm for 5 minutes to remove any cellular debris. Plasma samples were analyzed by LC-MS/MS.
LC was performed using an Agilent (Agilent Technologies Inc. USA) liquid chromatograph equipped with an isocratic pump (1100 series), an autosampler (1100 series) and a degasser (1100 series). Plasma samples (2 μL) were run at 25° C. on a Phenomenex Gemini, C18, 5 μm, (50 mm×2.0 mm) column using 0.1% formic acid:methanol (30:70) as the mobile phase with an elution rate of 300 μL/min.
Mass spectrometric analysis was performed on plasma samples (2 μL) prepared as set forth above using an API3000 (triple-quadrupole) instrument from AB Inc (Canada) with an ESI interface. The data acquisition and control system were created using Analyst 1.4 software from ABI Inc.

Data set [3] is described as follows: Pharmacokinetics of Compound 108 and 109 after intravenous and oral dosing in rats. In kind it is in vivo, Male Sprague-Dawley rats. Particulars: 8 mg/kg co-dosed with 8 mg/kg pirfenidone; for % Change compared to Pirfenidone, AUC0-∞ / % Change compared to Pirfenidone, Clearance / % Change compared to Pirfenidone, Half-life: IV dosing; for % Change compared to Pirfenidone, Cmax: oral dosing.

For orientation: AUC(0-inf) means the area under the concentration-time curve extrapolated to infinity. As a reminder, the half-life is how long it takes for the measured level to halve. A word on the Cmax: it is the peak of the concentration-time curve. As for `[2H]c1cc(C([2H])([2H])[2H])c([2H])n(-c2ccccc2)c1=O` [Compound 106, 3,6-Dideutero-5-(methyl-d3)-1-phenylpyridin-2(1H)-one], in data set [1] (IV dosing (Avg)), the AUC(0-inf) was found to be 6900 ng·h/mL, the clearance was 4.37 mL/min/kg and the half-life is 1.4 h. In data set [1] (oral dosing (Avg)), the AUC(0-inf) came out at 1260 ng·h/mL and the Cmax is 340 ng/mL. For the same compound, in data set [1] (intravenous administration), the “increase in AUC as compared to pirfenidone” value (from here on “increase in AUC”) is recorded as approximately 50% and the “increase in half-life as compared to pirfenidone” value (from here on “increase in half-life”) is “greater than 10%”. In data set [1] (oral dosing), the “increase in AUC” value was “greater than 50%” and the “increase in Cmax as compared to pirfenidone” value is “greater than 50%”. Further, in data set [2] (intravenous administration), the “increase in AUC” value came out at 72% and the “increase in half-life” value amounted to 62%. In data set [2] (IV dosing), the half-life was 1.2 h and the total exposure AUC(0-inf) came to 20100 ng·h/mL. Moreover, in data set [2] (oral dosing), the area under the curve AUC(0-inf) came out at 13800 ng·h/mL and the “increase in AUC” value is given as 75%.
For the compound `[2H]C([2H])([2H])c1ccc(=O)n(-c2ccccc2)c1` [Compound 108, 5-(Methyl-d3)-1-phenylpyridin-2(1H)-one], in data set [3], the “% Change compared to Pirfenidone, AUC0-∞” value is “+42%”; the “% Change compared to Pirfenidone, Clearance” value was −29%; the “% Change compared to Pirfenidone, Half-life” value is reported as “+37%”; the “% Change compared to Pirfenidone, Cmax” value is recorded as “+31%”. For the same compound, in data set [1] (IV dosing (Avg)), the AUC(0-inf) turned out to be 7000 ng·h/mL, the clearance was 4.58 mL/min/kg and the half-life is 1.5 h. In data set [1] (oral dosing (Avg)), the AUC(0-inf) was 1350 ng·h/mL and the highest concentration (Cmax) came to 360 ng/mL. In addition, in data set [1] (intravenous administration), the “increase in AUC” value is reported as approximately 50% and the “increase in half-life” value is given as “greater than 20%”. Also, in data set [1] (oral dosing), the “increase in AUC” value was approximately 60% and the “increase in Cmax as compared to pirfenidone” value is approximately 60%.
Regarding `[2H]c1c([2H])c([2H])c(-n2cc(C([2H])([2H])[2H])ccc2=O)c([2H])c1[2H]` [Compound 109], in data set [3], the “% Change compared to Pirfenidone, AUC0-∞” value was “+29%”; the “% Change compared to Pirfenidone, Clearance” value was −23%; the “% Change compared to Pirfenidone, Half-life” value is “+41%”; the “% Change compared to Pirfenidone, Cmax” value is “+19%”.
Consider `Cc1ccc(=O)n(-c2ccccc2)c1` [Pirfenidone, 5-methyl-1-phenylpyridin-2(1H)-one], for which, in data set [1] (IV dosing (Avg)), the AUC(0-inf) was 4800 ng·h/mL, the clearance is 6.57 mL/min/kg and the half-life was 1.2 h. In data set [1] (oral dosing (Avg)), the AUC(0-inf) was 830 ng·h/mL and the Cmax came out at 230 ng/mL. In addition, in data set [2] (IV dosing), the half-life is 0.74 h and the area under the curve AUC(0-inf) is 11600 ng·h/mL. Further, in data set [2] (oral dosing), the AUC(0-inf) was found to be 7910 ng·h/mL.
